Drawing on ChEMBL document CHEMBL4118279, “1,3-Di(quinolin-2-yl)guanidine binds to GGCCCC hexanucleotide repeat DNA in C9ORF72” (Bioorg Med Chem Lett, 2018), this text covers ΔTm, Activity and Tm for two compounds.

A short description of test [1]: Binding affinity to GGTTCC/GGTTCC motif-containing duplex DNA (unknown origin) assessed as change in melting temperature at 20 uM by UV-spectrophotometric method.
Test [2] can be described thus: Binding affinity to GGGGCC/GGGGCC motif-containing duplex DNA (unknown origin) assessed as change in melting temperature at 20 uM by UV-spectrophotometric method.
Test [3] in a line: Binding affinity to GGCCCC/GGCCCC motif-containing duplex DNA (unknown origin) assessed as formation of CD bands at 20 uM at 310 to 345 nm by CD spectrometry.
Test [4] in a line: Binding affinity to GGCCCC/GGCCCC motif-containing duplex DNA (unknown origin) assessed as change in melting temperature at 20 uM by UV-spectrophotometric method.
The nature of test [5]: Binding affinity to GGAACC/GGAACC motif-containing duplex DNA (unknown origin) assessed as change in melting temperature at 20 uM by UV-spectrophotometric method.
Test [6] is described as follows: Binding affinity to GGCCCC/GGGGCC motif-containing duplex DNA (unknown origin) assessed as change in melting temperature at 20 uM by UV-spectrophotometric method.
A short description of test [7]: Binding affinity to GGCTCC/GGCCCC motif-containing duplex DNA (unknown origin) assessed as change in melting temperature at 20 uM by UV-spectrophotometric method.
Test [8] is described as follows: Binding affinity to GGCTCC/GGCCCC motif-containing duplex DNA (unknown origin) assessed as formation of CD bands at 20 uM at 310 to 345 nm by CD spectrometry.
A short description of test [9]: Binding affinity to GGTCCC/GGTCCC motif-containing duplex DNA (unknown origin) assessed as change in melting temperature at 20 uM by UV-spectrophotometric method.
Test [10] can be described thus: Binding affinity to (GGCCCC)9 motif-containing duplex DNA (unknown origin) assessed as melting temperature at 20 uM by UV-spectrophotometric method.
Test [11] can be described thus: Binding affinity to GGCCCC/GGGGCC motif-containing duplex DNA (unknown origin) at 40 uM by ESI-TOF-MS analysis.
The nature of test [12]: Binding affinity to GGCCC/GGCCC motif-containing duplex DNA (unknown origin) assessed as change in melting temperature at 20 uM by UV-spectrophotometric method.
Test [13] can be described thus: Binding affinity to (GGCCCC)9 motif-containing duplex DNA (unknown origin) assessed as formation of CD bands at 20 uM at 245 to 282 nm by CD spectrometry.
Test [14] is described as follows: Binding affinity to GGCCCC/GGCCCC motif-containing duplex DNA (unknown origin) at 80 uM by ESI-TOF-MS analysis.
Test [15] in a line: Binding affinity to GGTCCC/GGCTCC motif-containing duplex DNA (unknown origin) assessed as change in melting temperature at 20 uM by UV-spectrophotometric method.
A short description of test [16]: Binding affinity to GGTTCC/GGCCCC motif-containing duplex DNA (unknown origin) assessed as change in melting temperature at 20 uM by UV-spectrophotometric method.
Test [17] in a line: Binding affinity to GGCTCC/GGCTCC motif-containing duplex DNA (unknown origin) assessed as change in melting temperature at 20 uM by UV-spectrophotometric method.
A short description of test [18]: Binding affinity to (GGCCCC)5 motif-containing duplex DNA (unknown origin) at 80 uM by ESI-TOF-MS analysis.
A short description of test [19]: Binding affinity to GGTCCC/GGCCCC motif-containing duplex DNA (unknown origin) assessed as formation of CD bands at 20 uM at 300 to 345 nm by CD spectrometry.
Test [20] in a line: Binding affinity to GGCCCC/GGCCCC motif-containing duplex DNA (unknown origin) at 40 uM by ESI-TOF-MS analysis.
Test [21] in a line: Binding affinity to GGTCCC/GGCCCC motif-containing duplex DNA (unknown origin) assessed as change in melting temperature at 20 uM by UV-spectrophotometric method.
Test [22] can be described thus: Binding affinity to GGTCCC/GGTCCC motif-containing duplex DNA (unknown origin) assessed as formation of CD bands at 20 uM at 310 to 345 nm by CD spectrometry.

Structures are written as SMILES. Calls of active or inactive are those of the source. The rule behind the calls is not given here.

As a reminder, the ΔTm is the shift of the melting midpoint relative to a reference. As a reminder, the Tm is the temperature at the midpoint of the melting transition.

Turning to `N=C(N)Nc1ccc2ccccc2n1`, the ΔTm was -1.3 °C in test [1]; -0.7 °C in test [2]; 3.4 °C in [4]; -0.5 °C in [5]; -2.8 °C in test [6]. In addition, the result in test [3] was Active.

As for `N=C(Nc1ccc2ccccc2n1)Nc1ccc2ccccc2n1`, the ΔTm in test [7] was 11.2 °C; in test [9], 11.5 °C; in test [12] it was 7.8 °C; in test [1], -0.1 °C; in test [15] it was 8.9 °C; in test [2], 0.7 °C. Besides, the ΔTm in test [16] is 8.6 °C; in test [4] it was 19.6 °C; in test [5] it was 2.1 °C; in [17], 8.3 °C; in test [21], 14.4 °C; in test [6] it was -1 °C. Also, the outcome in test [8], in test [11] and in test [22] was inactive. Also, the Tm in test [10] was found to be 67.8 °C. The result in [13], in test [14], in test [3], in test [18], in test [19] and in [20] was Active.
